Tested on: THP1-Dual™ reporter cells
Assay: THP1-Dual cell reporter assay (IRF-Lucia luciferase reporter)
Format: cell-based, human
Conditions: for EC50: Homo sapiens, THP1-Dual, free compounds, 24 h, Lucia reporter signal, read-out: EC50; for EC50 (ng/mL): ADCs: drug linker conjugated to a targeted mAb, 48 h
Description: THP1-Dual™ Cell Reporter Assay
Potency of compounds and ADCs was evaluated using the THP1-Dual™ cells (InvivoGen PN: thpd-nfis [also referred to as THP1 dual reporter cells]), which contain an IRF-Lucia luciferase reporter. Cells were cultured in RPMI-1640 (Gibco) with 10% heat-inactivated fetal bovine serum, Pen-Strep (100 U/mL-100 μg/mL, Gibco), HEPES (10 mM, Gibco)), sodium pyruvate (1 mM, Gibco), MEM non-essential amino acids (1×, Gibco), GlutaMAX (1×, Gibco), and beta-mercaptoethanol (55 μM, Gibco). Cells were plated in a 96-well flat bottom tissue culture-treated clear polystyrene plate (Corning Costar #3596) at ˜100,000 cells per well in 200 μL with the indicated concentration of the compound or ADC. The supernatant was harvested at 24 hours (compounds) or 48 hours (ADC) post plating for the reporter assay, or as indicated. To measure Lucia reporter signal, 10 μL of the supernatant was combined with 40 μL of QUANTI-Luc™ Luminescence assay reagent (Invivogen PN: rep-qlc1) in a 96-well clear flat bottom tissue culture-treated black polystyrene plate (Corning Costar #3603) and read on a Perkin Elmer Envision plate reader.
STING agonist compounds were assessed for their ability to activate THP1-Dual™ reporter cells, a human monocytic cell line in which type I interferon (IRF) signaling can be monitored via a secreted luciferase reporter protein (Lucia). THP1-Dual™ cells were treated with increasing concentrations of the agonists for 24h, then supernatants were harvested and the Lucia reporter signal was quantified using QUANTI-Luc™ Luminescence assay reagent.

SMILES	EC50	EC50 (ng/mL)
COc1cc(C(N)=O)cc2nc(NC(=O)c3nc(C)cs3)n(C/C=C/Cn3c(NC(=O)c4nc(C)cs4)nc4cc(C(N)=O)cc(O)c43)c12 [Compound 38]	> 10 µM	
COc1cc(C(N)=O)cc2nc(NC(=O)c3cc(C)on3)n(C/C=C/Cn3c(NC(=O)c4cc(C)on4)nc4cc(C(N)=O)cc(O)c43)c12 [Compound 39]	> 10 µM	
COc1cc(C(N)=O)cc2nc(NC(=O)c3cc(C)sn3)n(C/C=C/Cn3c(NC(=O)c4cc(C)sn4)nc4cc(C(N)=O)cc(O)c43)c12 [Compound 40]	> 10 µM	
CCn1cccc1C(=O)Nc1nc2cc(C(N)=O)cc(O)c2n1C/C=C/Cn1c(NC(=O)c2cccn2CC)nc2cc(C(N)=O)cc(OC)c21 [Compound 41]	> 10 µM	
COc1cc(C(N)=O)cc2nc(NC(=O)c3cccnn3)n(C/C=C/Cn3c(NC(=O)c4cccnn4)nc4cc(C(N)=O)cc(O)c43)c12 [Compound 42]	> 10 µM	
COc1cc(C(N)=O)cc2nc(NC(=O)c3ccnnc3)n(C/C=C/Cn3c(NC(=O)c4ccnnc4)nc4cc(C(N)=O)cc(O)c43)c12 [Compound 43]	> 10 µM	
COc1cc(C(N)=O)cc2nc(NC(=O)c3ncccn3)n(C/C=C/Cn3c(NC(=O)c4ncccn4)nc4cc(C(N)=O)cc(O)c43)c12 [Compound 44]	> 10 µM	
COc1cc(C(N)=O)cc2nc(NC(=O)c3ccncn3)n(C/C=C/Cn3c(NC(=O)c4ccncn4)nc4cc(C(N)=O)cc(O)c43)c12 [Compound 45]	> 10 µM	
COc1cc(C(N)=O)cc2nc(NC(=O)c3cnccn3)n(C/C=C/Cn3c(NC(=O)c4cnccn4)nc4cc(C(N)=O)cc(O)c43)c12 [Compound 46]	> 10 µM	
COc1cc(C(N)=O)cc2nc(NC(=O)Cn3cccn3)n(C/C=C/Cn3c(NC(=O)Cn4cccn4)nc4cc(C(N)=O)cc(O)c43)c12 [Compound 47]	> 10 µM	
COc1cc(C(N)=O)cc2nc(NC(=O)Cn3nc(C)cc3C)n(C/C=C/Cn3c(NC(=O)Cn4nc(C)cc4C)nc4cc(C(N)=O)cc(O)c43)c12 [Compound 48]	> 10 µM	
COc1cc(C(N)=O)cc2nc(NC(=O)C(C)n3cc(Cl)cn3)n(C/C=C/Cn3c(NC(=O)C(C)n4cc(Cl)cn4)nc4cc(C(N)=O)cc(O)c43)c12 (stereo not drawn) [Compound 49]	> 10 µM	
COc1cc(C(N)=O)cc2nc(NC(=O)c3cc(Cl)nn3C)n(C/C=C/Cn3c(NC(=O)c4cc(Cl)nn4C)nc4cc(C(N)=O)cc(O)c43)c12 [Compound 50]	> 10 µM	
COc1cc(C(=O)Nc2nc3cc(C(N)=O)cc(O)c3n2C/C=C/Cn2c(NC(=O)c3cc(OC)nn3C)nc3cc(C(N)=O)cc(OC)c32)n(C)n1 [Compound 51]	> 10 µM	
CCn1nc(C(F)(F)F)cc1C(=O)Nc1nc2cc(C(N)=O)cc(O)c2n1C/C=C/Cn1c(NC(=O)c2cc(C(F)(F)F)nn2CC)nc2cc(C(N)=O)cc(OC)c21 [Compound 52]	> 10 µM	
CCc1cc(C(=O)Nc2nc3cc(C(N)=O)cc(O)c3n2C/C=C/Cn2c(NC(=O)c3cc(CC)nn3C)nc3cc(C(N)=O)cc(OC)c32)n(C)n1 [Compound 53]	> 10 µM	
COc1cc(C(N)=O)cc2nc(NC(=O)c3cc(C)nn3C)n(C/C=C/Cn3c(NC(=O)c4cc(C)nn4C)nc4cc(C(N)=O)cc(O)c43)c12 [Compound 54]	> 10 µM	
COc1cc(C(N)=O)cc2nc(NC(=O)c3cc(C)n[nH]3)n(C/C=C/Cn3c(NC(=O)c4cc(C)n[nH]4)nc4cc(C(N)=O)cc(O)c43)c12 [Compound 55]	> 10 µM	

SMILES	EC50	EC50 (ng/mL)
COc1cc(C(N)=O)cc2nc(NC(=O)C3CCCC3)n(C/C=C/Cn3c(NC(=O)C4CCCC4)nc4cc(C(N)=O)cc(O)c43)c12 [Compound 56]	> 10 µM	
COc1cc(C(N)=O)cc2nc(NC(=O)C3CCC3)n(C/C=C/Cn3c(NC(=O)C4CCC4)nc4cc(C(N)=O)cc(O)c43)c12 [Compound 57]	> 10 µM	
COc1cc(C(N)=O)cc2nc(NC(=O)c3cc(C)no3)n(C/C=C/Cn3c(NC(=O)c4cc(C)no4)nc4cc(C(N)=O)cc(O)c43)c12 [Compound 58]	> 10 µM	
COc1cc(C(N)=O)cc2nc(NC(=O)c3ccno3)n(C/C=C/Cn3c(NC(=O)c4ccno4)nc4cc(C(N)=O)cc(O)c43)c12 [Compound 59]	> 10 µM	
COc1cc(C(N)=O)cc2nc(NC(=O)c3cc(C)ns3)n(C/C=C/Cn3c(NC(=O)c4cc(C)ns4)nc4cc(C(N)=O)cc(O)c43)c12 [Compound 60]	> 10 µM	
CCn1nc(C)cc1C(=O)Nc1nc2cc(C(=O)OC)cc(O)c2n1C/C=C/Cn1c(NC(=O)c2cc(C)nn2CC)nc2cc(C(=O)OC)cc(OC)c21 [Compound 62, methyl (E)-2-(1-ethyl-3-methyl-1H-pyrazole-5-carboxamido)-1-(4-(2-(1-ethyl-3-methyl-1H-pyrazole-5-carboxamido)-7-hydroxy-5-(methoxycarbonyl)-1H-benzo[d]imidazol-1-yl)but-2-en-1-yl)-7-methoxy-1H-benzo[d]imidazole-5-carboxylate]	> 10 µM	
CCn1nc(C)cc1C(=O)Nc1nc2cc(C(=O)O)cc(O)c2n1C/C=C/Cn1c(NC(=O)c2cc(C)nn2CC)nc2cc(C(=O)O)cc(OC)c21 [Compound 63, (E)-1-(4-(5-carboxy-2-(1-ethyl-3-methyl-1H-pyrazole-5-carboxamido)-7-hydroxy-1H-benzo[d]imidazol-1-yl)but-2-en-1-yl)-2-(1-ethyl-3-methyl-1H-pyrazole-5-carboxamido)-7-methoxy-1H-benzo[d]imidazole-5-carboxylic acid]	2.51 µM	
CCn1nc(C)cc1C(=O)Nc1nc2cc(C(=O)OC)cc(OC)c2n1C/C=C/Cn1c(NC(=O)c2cc(C)nn2CC)nc2cc(C(=O)OC)cc(OCCCN(C)C(=O)CCN3C(=O)C=CC3=O)c21 [Compound 66, methyl (E)-7-(3-(3-(2,5-dioxo-2,5-dihydro-1H-pyrrol-1-yl)-N-methylpropanamido)propoxy)-2-(1-ethyl-3-methyl-1H-pyrazole-5-carboxamido)-1-(4-(2-(1-ethyl-3-methyl-1H-pyrazole-5-carboxamido)-7-methoxy-5-(methoxycarbonyl)-1H-benzo[d]imidazol-1-yl)but-2-en-1-yl)-1H-benzo[d]imidazole-5-carboxylate]		>10,000 ng/mL
CCn1nc(C)cc1C(=O)Nc1nc2cc(C(=O)OC)cc(OC)c2n1C/C=C/Cn1c(NC(=O)c2cc(C)nn2CC)nc2cc(C(=O)OC)cc(OCCCNC)c21 [Compound 66b]	1.16 µM	
CCn1nc(C)cc1C(=O)Nc1nc2cc(C(=O)OC)cc(OC)c2n1C/C=C/Cn1c(NC(=O)c2cc(C)nn2CC)nc2cc(C(=O)OC)cc(OCCCN(C)C(=O)OCc3ccc(O[C@@H]4O[C@H](C(=O)O)[C@@H](O)[C@H](O)[C@H]4O)cc3NC(=O)CCNC(=O)CCN3C(=O)C=CC3=O)c21 [Compound 67]		>10,000 ng/mL
CCn1nc(C)cc1C(=O)Nc1nc2cc(C(=O)O)cc(OC)c2n1C/C=C/Cn1c(NC(=O)c2cc(C)nn2CC)nc2cc(C(=O)O)cc(OCCCN(C)C(=O)CCN3C(=O)C=CC3=O)c21 [Compound 68, (E)-1-(4-(5-carboxy-2-(1-ethyl-3-methyl-1H-pyrazole-5-carboxamido)-7-methoxy-1H-benzo[d]imidazol-1-yl)but-2-en-1-yl)-7-(3-(3-(2,5-dioxo-2,5-dihydro-1H-pyrrol-1-yl)-N-methylpropanamido)propoxy)-2-(1-ethyl-3-methyl-1H-pyrazole-5-carboxamido)-1H-benzo[d]imidazole-5-carboxylic acid]		>10,000 ng/mL
CCn1nc(C)cc1C(=O)Nc1nc2cc(C(=O)O)cc(OC)c2n1C/C=C/Cn1c(NC(=O)c2cc(C)nn2CC)nc2cc(C(=O)O)cc(OCCCN(C)C(=O)OCc3ccc(O[C@@H]4O[C@H](C(=O)O)[C@@H](O)[C@H](O)[C@H]4O)cc3NC(=O)CCNC(=O)CCN3C(=O)C=CC3=O)c21 [Compound 69]		>10,000 ng/mL
CCn1nc(C)cc1C(=O)Nc1nc2cc(C(N)=O)cc(O)c2n1C/C=C/Cn1c(NC(=O)c2cc(C)nn2CC)nc2cc(C(N)=O)cc(OCCCN3CCOCC3)c21 [Compound 70]	0.0016 µM	
CCn1nc(C)cc1C(=O)Nc1nc2cc(C(N)=O)cc(OC)c2n1C/C=C/Cn1c(NC(=O)c2cc(C)nn2CC)nc2cc(C(N)=O)cc(OCCCN(C)C(=O)[C@H](CC(=O)O)NC(=O)CCN3C(=O)CC(SC[C@H](N)C(=O)O)C3=O)c21 (stereo partly drawn) [Compound 71]	0.0701 µM	
CCn1nc(C)cc1C(=O)Nc1nc2cc(C(N)=O)cc(OC)c2n1C/C=C/Cn1c(NC(=O)c2cc(C)nn2CC)nc2cc(C(N)=O)cc(OCCCN(C)C(=O)CNC(=O)CCN3C(=O)CC(SC[C@H](N)C(=O)O)C3=O)c21 (stereo partly drawn) [Compound 73]	0.216 µM	
CCn1nc(C)cc1C(=O)Nc1nc2cc(C(N)=O)cc(OC)c2n1C/C=C/Cn1c(NC(=O)c2cc(C)nn2CC)nc2cc(C(N)=O)cc(OCCCN(C)C(=O)[C@H](C)NC(=O)CCN3C(=O)CC(SC[C@H](N)C(=O)O)C3=O)c21 (stereo partly drawn) [Compound 74]	0.036 µM	
CCn1nc(C)cc1C(=O)Nc1nc2cc(C(N)=O)cc(OC)c2n1C/C=C/Cn1c(NC(=O)c2cc(C)nn2CC)nc2cc(C(N)=O)cc(OCCCN(C)C(=O)[C@H](CO)NC(=O)CCN3C(=O)CC(SC[C@H](N)C(=O)O)C3=O)c21 (stereo partly drawn) [Compound 75]	0.0577 µM	
CCn1nc(C)cc1C(=O)Nc1nc2cc(C(N)=O)cc(OC)c2n1C/C=C/Cn1c(NC(=O)c2cc(C)nn2CC)nc2cc(C(N)=O)cc(OCCCN(C)C(=O)[C@H](COC)NC(=O)CCN3C(=O)CC(SC[C@H](N)C(=O)O)C3=O)c21 (stereo partly drawn) [Compound 76]	0.0588 µM	
